The test system of data set [1] is SKBR-3 human breast cancer cell line. Nature of the data set: In vitro cytotoxicity, MTT test, SKBR-3. In kind it is cell-based. The conditions noted are these: SK-BR-3, 72 h, read-out: IC50 (concentration of drug necessary to inhibit cell growth by 50%). The protocol: (§1) Four cell lines of human breast cancer were used.
(§2) 1) the test cell line is plated at a concentration of 3,000 cells per well, on a flat-bottomed, 96-well plate;
(§3) 2) 24 hours later, the cells are supplemented with the test solutions suitably diluted in culture medium;
(§4) This is possible because mitochondrial dehydrogenase is able to reduce the tetrazolium salts (yellow) into blue formazan crystals. The greater or lesser intensity of colour is assessed by spectrophotometry (Dezinot, F. et al., J. Immunol. Methods, 1986, 22 (89): 271-277).

The conditions of data set [2]: intravenous infusion of paclitaxel-Cremophor EL in spite of pre-medication; cited from earlier work.
The test system of data set [3] is human ovary adenocarcinoma cells, OVCAR-3 cells. Nature of the data set: Survival of nude mice after intraperitoneal implant of OVCAR-3 neoplastic cells. The conditions noted are these: 3 intraperitoneal doses (days 6, 13, 20): 20 mg/kg Taxol or 125 mg/kg HYTAD; 5 animals per group. In kind it is in vivo, immunodepressed nude mice (Athymic CD-1). The source says:
For this experiment, we used human ovary adenocarcinoma cells, OVCAR-3 cells, in immunodepressed nude mice belonging to the Athymic CD-1 species.
Each mouse was inoculated by the intraperitoneal route with 5×10^6 cancer cells.
The molecular weight of the HA used for synthesis of this new drug was 200,000 Da (see Example 7 for details of its preparation). Five animals were used for this drug too.
Treated animals: 10 animals were first inoculated with OVCAR-3 cells.
The survival curve was calculated from the date of intervention to the 92nd day after inoculation of the cancer cells into the peritoneum.

Data set [4] has as its system MCF-7 human breast cancer cell line. Kind of data set: In vitro cytotoxicity, MTT test, MCF-7. The conditions noted are these: MCF7, 72 h, read-out: IC50 (concentration of drug necessary to inhibit cell growth by 50%). In kind it is cell-based. The method, then: as §1, §2, §3, §4
A general note: Formazan colour is commonly taken as a measure of viable cells.

Data set [5] relates to MDA-MB-231 human breast cancer cell line. Nature of the data set: In vitro cytotoxicity, MTT test, MDA-MB-231. Particulars: MDA-MB-231, 72 h, read-out: IC50 (concentration of drug necessary to inhibit cell growth by 50%). The format is cell-based. The protocol:
as §1, §2, §3, §4

The text below walks through data of patent US8034795B2, “Taxanes covalently bounded to hyaluronic acid or hyaluronic acid derivatives” (Fidia Farmaceutici S.p.A., priority 2002, dated 2011).

The structures appear in SMILES notation.

In the case of `CC(=O)O[C@H]1C(=O)[C@@]2(C)[C@H]([C@H](OC(=O)c3ccccc3)[C@]3(O)C[C@H](OC(=O)[C@H](O)[C@@H](NC(=O)c4ccccc4)c4ccccc4)C(C)=C1C3(C)C)[C@]1(OC(C)=O)CO[C@@H]1C[C@@H]2O` [Taxol ®, paclitaxel], the values for the IC50 in data set [1], in data set [4] and in data set [5] were 0.23 nM, 3.5 nM and 0.35 nM, respectively. Also, in data set [2], the “patients who experience more or less severe adverse reactions” value was “up to 40%”. The “animals that had died on the 92nd day after intervention” value in data set [3] is “none”.
